From paper PMC11355918, “Inhibition of Soluble Epoxide Hydrolase by Cembranoid Diterpenes from Soft Coral Sinularia maxima: Enzyme Kinetics, Molecular Docking, and Molecular Dynamics” (Marine Drugs, 2024)
Like-named read-outs stand apart in the source and are kept apart here.

Assays:
recombinant human sEH [1] = target: T1, recombinant human sEH (Homo sapiens, UniProt P34913); assay: biochemical; conditions: PHOME substrate, 37 °C, 60 min, mean ± SD (n = 3); read-out: IC50 (sEH inhibitory effect)
T1 sequence (P34913 1-555): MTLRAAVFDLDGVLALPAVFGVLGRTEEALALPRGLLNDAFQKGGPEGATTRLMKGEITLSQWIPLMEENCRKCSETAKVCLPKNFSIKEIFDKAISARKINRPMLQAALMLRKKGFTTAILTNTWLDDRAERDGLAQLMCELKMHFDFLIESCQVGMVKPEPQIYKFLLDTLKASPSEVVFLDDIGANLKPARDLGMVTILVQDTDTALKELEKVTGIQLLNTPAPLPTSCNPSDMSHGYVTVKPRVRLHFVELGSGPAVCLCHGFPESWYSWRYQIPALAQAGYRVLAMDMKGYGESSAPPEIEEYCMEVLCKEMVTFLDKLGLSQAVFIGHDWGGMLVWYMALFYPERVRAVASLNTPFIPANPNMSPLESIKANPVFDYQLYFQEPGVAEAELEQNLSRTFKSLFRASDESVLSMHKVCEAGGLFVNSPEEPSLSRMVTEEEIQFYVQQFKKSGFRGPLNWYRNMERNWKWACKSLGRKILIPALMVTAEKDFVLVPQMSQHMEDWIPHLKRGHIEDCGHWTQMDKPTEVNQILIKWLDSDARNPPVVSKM
Description: Bis-Tris (B9754) was purchased from Sigma-Aldrich (St. Louis, MO, USA).
The sEH inhibition assay was performed as described in a previous study, with slight modifications. In 96-well plates, separate mixtures were prepared for each test compound, containing 130 µL of sEH in Bis-Tris buffer with HCl (pH 7.0, containing 0.1% bovine serum albumin) and 20 µL of the test compound (10 mM, diluted in DMSO). Subsequently, 50 µL of PHOME, which serves as a substrate, was added to each well. The mixtures were then incubated at 37 °C, and fluorescence was monitored using the VICTOR Nivo multimode plate reader (PerkinElmer, Waltham, MA, USA) for 60 min, with excitation and emission wavelengths of 330 nm and 460 nm, respectively. […] The inhibitory activity was calculated using the following equation:Inhibitory activity (%) = [1 − (ΔI/ΔC)] × 100%, where ΔI and ΔC are the fluorescence readings of the inhibitor and the control after 60 min, respectively. IC50 values were calculated using SigmaPlot 10.0 (Systat Software, CA, USA). Data are presented as means ± standard deviations from three independent experiments (n = 3, p < 0.05).

recombinant human sEH [2] = target: T1, recombinant human sEH; assay: Enzyme kinetics of sEH inhibition (Lineweaver-Burk and Dixon plots); type: biochemical; conditions: for Ki: Determined using Dixon plots, read-out: Ki (inhibition constant); for Inhibition Type: Determined using Lineweaver-Burk plots, PHOME 0.1-0.8 mM
Description: The inhibition type of a compound provides insight into how it interacts with the enzyme. […] PHOME concentrations of 0.1, 0.2, 0.4, and 0.8 mM were used, along with compound 3 concentrations of 0, 15, 30, 60, and 90 µM, and compound 9 concentrations of 0, 20, 40, 60, and 100 µM. In the Lineweaver–Burk method, competitive and non-competitive inhibition is indicated by a series of straight lines intersecting at the same point on the y- and x-axes, respectively. […] In most cases, this implies that these inhibitors bind to an allosteric site on the enzyme rather than the active site, thereby preventing the enzyme from functioning regardless of the substrate concentration.
The inhibition constant (Ki) is a measure of the binding affinity of the inhibitor for the enzyme, with a lower value indicating a stronger affinity. Dixon plots were used to determine the Ki values for the compounds.
Enzyme kinetics were analyzed using Lineweaver–Burk and Dixon plots. This approach helped determine the mode of inhibition and the inhibition constant (Ki) at various substrate concentrations, both in the absence (0 μM) and presence of inhibitors. Data were plotted using Microsoft Excel 365.

sEH = conditions: cited from earlier work
[3] = protostane-type triterpenoids from Alisma orientale, read-out: IC50 (sEH inhibition)

Compound | IC50 (recombinant human sEH [1]) | also measured
C=C(C)C1CC=C(C(=O)OC)CC(=O)CC(C)(O)C=C2C=C(C(=O)OC)C(OC)(C1)O2 (stereo not drawn) [Compound 9, sethukarailin] | 78.8 ± 2.26 µM | Ki (recombinant human sEH [2]): 55 µM; Inhibition Type (recombinant human sEH [2]): Non-competitive
C[C@@H]1CC[C@]2(C(=O)O)CC[C@]3(C)C(=CC[C@@H]4[C@@]5(C)CC(=O)[C@H](O)C(C)(C)[C@@H]5CC[C@]43C)[C@@H]2[C@]1(C)O [2-oxopomolic acid] |  | IC50 (sEH; triterpenoid from Malus domestica, read-out: IC50 (sEH inhibitory activity)): 11.4 ± 2.7 µM
CC1=CC2OC(=O)C(C)=C2CCC(C)(O)C=CCC(C)(O)C(O)CC1 (stereo not drawn) [Compound 7, sinumaximol G] | > 100 µM | 
C=C1CCC2=C(C)COC2C=C(C)CCC(O)C(C)(O)CCC1O (stereo not drawn) [Compound 8, sinumaximol H] | > 100 µM | 
3β-hydroxy-25-anhydro-alisol F |  | IC50 (sEH; [3]): 10.1 ± 1.12 µM
C=C(C)C1CCC2=CC(CC(C)(O)C(O)C3=CC(C(=O)OC)=C(C1)O3)OC2=O (stereo not drawn) [Compound 2, sinumaximol B] | > 100 µM | 
C=C1CCC2(O)C(=C)COC2C=C(C)CCC2OC2(C)CCC1O (stereo not drawn) [Compound 4, sinumaximol D] | > 100 µM | 
CC1=CC2OCC(C)(O)C2=CCC(C)(O)C=CCC2(C)OC2CC1 (stereo not drawn) [Compound 6, sinumaximol F] | > 100 µM | 
C=C(C)[C@H]1C/C=C(\C(=O)OC)CC(=O)C[C@@](C)(O)[C@@H](O)C2=CC(C(=O)OC)=C(C1)O2 [Compound 1, sinumaximol A] | > 100 µM | 
C=C(C)[C@H]1CCC2=C[C@@H](C[C@@]3(C)CC(=O)[C@H](CC(=O)C1)O3)OC2=O [Compound 10, 5-epinorcembrene] | > 100 µM | 
C=C1CC=C2C(C=C(C)CCC3OC3(C)CCC1O)OCC2(C)O (stereo not drawn) [Compound 5, sinumaximol E] | > 100 µM | 
3β-hydroxy-alisol G |  | IC50 (sEH; [3]): 30.4 ± 2.65 µM
C=C(C)[C@@H](O)[C@@H](O)C[C@@H](C)C1=C2CC[C@H]3[C@@]4(C)CCC(=O)C(C)(C)[C@@H]4CC[C@]3(C)[C@@]2(C)CC1 [11-deoxy-25-anhydro alisol E] |  | IC50 (sEH; protostane-type triterpenoids, read-out: IC50 (sEH inhibitory effects)): 5.94 ± 0.54 µM
C=C(C)C1CCC23OC2C(CC(C)(O)C=C2C=C(C(=O)OC)C(OC)(C1)O2)OC3=O (stereo not drawn) [Compound 3, sinumaximol C] | 70.7 ± 1.44 µM | Ki (recombinant human sEH [2]): 59.4 µM; Inhibition Type (recombinant human sEH [2]): Non-competitive
